Measured values as given in article PMC3172881 (Cancer cell, 2011).

Experiments:
[1] = 5-FU pharmacokinetics, tumor microdialysis and plasma; format: in vivo, mouse
[2] = tested on: subventricular zone (SVZ) of Prom1^+/C-L mice; experiment: In vivo NSC toxicity: ApoTag, DCX and LacZ; conditions: for number of Prom1^+ cells in the SVZ / number of apoptotic cells in the SVZ: ±SEM; for number of apoptotic cells in the SVZ: ApoTag
[3] = Tolerability of 5-FU infusion via Alzet pumps; format: in vivo, mouse; conditions: 13 mg/kg/hour via Alzet pumps; unacceptably toxic
[4] = tested on: mEP^Ephb2-LUC brain tumors; experiment: Orthotopic allograft efficacy study, bioluminescence and survival; format: in vivo, mouse; conditions: for survival of mice harbouring mEP^Ephb2-LUC tumors / rate of mEP^Ephb2-LUC tumor growth: 5-FU 75 mg/kg i.v. once weekly, bortezomib 0.8 mg/kg i.v. twice weekly; for rate of mEP^Ephb2-LUC tumor growth: bioluminescence
[5] = tested on: mEP^Ephb2, mBT^NICD1, NSC^wt and NSC^null cells; format: cell-based, mouse; conditions: for cell-selective activity class in HTS: class from average EC50 in each of four cell types, secondary screen
mEP^Ephb2 cells = experiment: HTS activity against ependymoma cells; format: cell-based, mouse; conditions: result in words
IGF1R = experiment: Western blot of IGF1R signalling in mEP^Ephb2 cells stimulated with IGF2; format: cell-based, mouse

O=c1[nH]cc(F)c(=O)[nH]1 [5-FU, 5-fluorouracil]
time the tumor concentration was maintained ([1]; 13 mg/kg/hour via Alzet pumps, ~10 μM): over 24 hours
time brain tumor concentration remained above 10μM ([1]; intravenous bolus 75 mg/kg): approximately 1 hour
peak concentration in brain tumors ([1]; intravenous bolus 75 mg/kg, microdialysis, ±79 S.D.): 800 µM
tumor drug levels ([1]; subcutaneous infusion 1.03 mg/kg/hour): failed to generate detectable tumor drug levels
DCX^+ labelling in the SVZ ([2]; four weeks of therapy): returned to control levels
apoptotic labelling in the SVZ ([2]; four weeks of therapy): returned to control levels
area of DCX^+ neuroblast rests in the SVZ ([2]; two weeks of therapy): 2.2 μm^2 per μm ventricular surfac
number of Prom1^+ cells in the SVZ ([2]; two weeks of therapy): 35.1%
number of apoptotic cells in the SVZ ([2]; two weeks of therapy): 12.0±1.7
weight loss [3]: ≥ 20%
survival of mice harbouring mEP^Ephb2-LUC tumors [4]: significantly prolonged
rate of mEP^Ephb2-LUC tumor growth [4]: halved
activity against mEP^Ephb2-LUC brain tumors ([4]; delivered subcutaneously via Alzet pumps): inactive

C/C=C(\C)C(=O)O[C@H]1[C@H](OC(C)=O)[C@@]2(CO)C(CC1(C)C)C1=CC[C@@H]3[C@@]4(C)CC[C@H](O[C@@H]5O[C@H](C(=O)O)[C@@H](O[C@@H]6O[C@H](CO)[C@@H](O)[C@H](O)[C@H]6O)[C@H](O)[C@H]5O[C@@H]5O[C@H](CO)[C@@H](O)[C@H](O)[C@H]5O)[C@H](CO)C4CC[C@@]3(C)[C@@]1(C)C[C@H]2O (stereo partly drawn) [beta-escin]
cell-selective activity class in HTS [5]: ependymoma selective

CC[C@@]1(O)C(=O)OCc2c1cc1n(c2=O)Cc2cc3c(CN(C)C)c(O)ccc3nc2-1 [topotecan]
EC50 ([5]; Mus musculus, 96 h): 200 to 700 nM
cell-selective activity class in HTS [5]: equipotent

N.N.O=C([O-])C1(C(=O)[O-])CCC1.[Pt+2] [carboplatin]
activity against mEP^Ephb2 cells in HTS (mEP^Ephb2 cells): Neither carboplatin nor irinotecan were active

CCc1c2c(nc3ccc(OC(=O)N4CCC(N5CCCCC5)CC4)cc13)-c1cc3c(c(=O)n1C2)COC(=O)[C@]3(O)CC [irinotecan]
activity against mEP^Ephb2 cells in HTS (mEP^Ephb2 cells): Neither carboplatin nor irinotecan were active

COc1cc2c(cc1Nc1nc(Nc3ccsc3C(N)=O)c3cc[nH]c3n1)N(C(=O)CN(C)C)CCC2 [GSK2110236A]
activity against mEP^Ephb2 cells in HTS (mEP^Ephb2 cells): potent inhibitor
IGF1R and its downstream signal (IGF1R): blocked

CC(C)C[C@H](NC(=O)[C@H](Cc1ccccc1)NC(=O)c1cnccn1)B(O)O [bortezomib]
activity against mEP^Ephb2 cells in HTS (mEP^Ephb2 cells): highly potent
DCX^+ labelling in the SVZ ([2]; four weeks of therapy): returned to control levels
Prom1^+ cell numbers in the SVZ relative to controls ([2]; four weeks of therapy): > 2.5 times
apoptotic labelling in the SVZ ([2]; four weeks of therapy): returned to control levels
number of Prom1^+ cells in the SVZ ([2]; four weeks of therapy): 57.8%
area of DCX^+ neuroblast rests in the SVZ ([2]; two weeks of therapy): 6.0 μm^2 per μm ventricular surfac
number of Prom1^+ cells in the SVZ ([2]; two weeks of therapy): 39.2%
number of apoptotic cells in the SVZ ([2]; two weeks of therapy): 22.2±5.1
survival of mice harbouring mEP^Ephb2-LUC tumors [4]: significantly prolonged
rate of mEP^Ephb2-LUC tumor growth [4]: halved

CS(=O)(=O)CCNCc1ccc(-c2ccc3ncnc(Nc4ccc(OCc5cccc(F)c5)c(Cl)c4)c3c2)o1 [lapatinib]
activity against mEP^Ephb2 cells in HTS (mEP^Ephb2 cells): inactive
